The source made the active and inactive calls. The calls are words filed in the database; no cut-off is given here.

Data set [1] in a line: Acute toxicity in male Kunming mouse assessed as histopathological changes in lung at 250 mg/kg administered via gavage by H and E staining based analysis. The format is organism-based. As to conditions: in vivo, po.
Data set [2] is described as follows: Acute toxicity in male Kunming mouse assessed as histopathological changes in kidney at 250 mg/kg administered via gavage by H and E staining based analysis. The data set is classed as organism-based. As to conditions: in vivo, po.
Data set [3] is described as follows: Acute toxicity in male Kunming mouse assessed as histopathological changes in spleen at 250 mg/kg administered via gavage by H and E staining based analysis. Conditions: in vivo, po. The data set is classed as organism-based.
Data set [4] is described as follows: Cytotoxicity against mouse BV-2 cells assessed as cell viability at 1 uM by MTT assay relative to control. The format is toxicity, cell-based. Conditions: read-out: Activity.
Data set [5] is described as follows: Cytotoxicity against mouse BV-2 cells assessed as cell viability at 10 uM by MTT assay relative to control. The format is toxicity, cell-based. Conditions: read-out: Activity.
In data set [6] the test system is BV-2. Put plainly: Antiinflammatory activity in LPS-induced mouse BV-2 cells assessed as decrease in TNF-alpha production preincubated for 2 hrs followed by LPS addition and measured after 24 hrs by qRT-PCR analysis. The format is functional, cell-based. Conditions: dose 5-10 µM, time 26.0 hrs.
Data set [7] relates to BV-2. In words: Antiinflammatory activity in LPS-induced mouse BV-2 cells assessed as reduction in NO production preincubated for 2 hrs followed by LPS addition and measured after 24 hrs by Griess reagent based analysis. As to conditions: dose 5-10 µM, time 26.0 hrs. The data set is classed as functional, cell-based.
The test system of data set [8] is BV-2. Put plainly: Antiinflammatory activity in LPS-induced mouse BV-2 cells assessed as downregulation of COX2 mRNA expression level at 5 to 10 uM preincubated for 2 hrs followed by LPS addition and measured after 6 hrs by qRT-PCR analysis. The format is functional, cell-based. As to conditions: dose 5-10 µM, time 8.0 hrs.
Data set [9] deals with BV-2. Put plainly: Antiinflammatory activity in LPS-induced mouse BV-2 cells assessed as downregulation of iNOS protein expression level preincubated for 2 hrs followed by LPS addition and measured after 24 hrs by Western blot analysis. The data set is classed as functional, cell-based. As to conditions: dose 5-10 µM, time 26.0 hrs.
Data set [10] can be described thus: Acute toxicity in male Kunming mouse assessed as effect on body weight at 250 mg/kg administered via gavage for 14 days. The data set is classed as organism-based. As to conditions: in vivo, po, 336 h, time 14 day.
The nature of data set [11]: Acute toxicity in male Kunming mouse assessed as effect on organ coefficient of spleen at 250 mg/kg administered via gavage. As to conditions: in vivo, po. The data set is classed as organism-based.
A short description of data set [12]: Acute toxicity in female Kunming mouse assessed as effect on organ coefficient of heart at 250 mg/kg administered via gavage. The format is organism-based. Conditions: in vivo, po.
Data set [13] can be described thus: Acute toxicity in female Kunming mouse assessed as effect on organ coefficient of spleen at 250 mg/kg administered via gavage. The data set is classed as organism-based. Conditions: in vivo, po.
The nature of data set [14]: Acute toxicity in female Kunming mouse assessed as effect on organ coefficient of liver at 250 mg/kg administered via gavage. The data set is classed as organism-based. As to conditions: in vivo, po.
The nature of data set [15]: Acute toxicity in male Kunming mouse assessed as histopathological changes in heart at 250 mg/kg administered via gavage by H and E staining based analysis. As to conditions: in vivo, po. The data set is classed as organism-based.
Data set [16] is described as follows: Acute toxicity in female Kunming mouse assessed as histopathological changes in liver at 250 mg/kg administered via gavage by H and E staining based analysis. The data set is classed as organism-based. Conditions: in vivo, po.
The nature of data set [17]: Acute toxicity in female Kunming mouse assessed as histopathological changes in kidney at 250 mg/kg administered via gavage by H and E staining based analysis. The format is organism-based. Conditions: in vivo, po.
Data set [18] can be described thus: Acute toxicity in male Kunming mouse assessed as increase in GPT level in blood at 250 mg/kg administered via gavage by biochemical analysis. The data set is classed as organism-based. As to conditions: in vivo, po.
Data set [19] concerns BV-2. In words: Antiinflammatory activity in LPS induced mouse BV-2 cells assessed as NO production at 10 uM by Griess reagent based assay relative to control.

Take `COc1c2n(cc(C(=O)Nc3cccc(-c4cn(-c5ccccc5Cl)nn4)c3)c1=O)C[C@@H]1OCC[C@@H](C)N1C2=O`: the Activity entry was “Non-toxic” in data set [1]; “Non-toxic” in data set [2]; “Non-toxic” in [3]; “Dose-dependent-effect” in the data set on BV-2 [6]; “Dose-dependent-effect” with BV-2 [7]; “Dose-dependent-effect” with BV-2 [9]. Moreover, the Activity result in data set [10], in data set [11], in data set [12], in data set [13], in data set [14] and in [15] was “Non-toxic” throughout. Besides, the Activity entry in data set [16] is listed as “Non-toxic”; in data set [17], “Non-toxic”; in [18] it was “Toxic”. Moreover, in data set [4], the viability at 1 µM worked out at 88%. The viability at 10 µM in [5] worked out at 86.7%. Further, in the data set on BV-2 [8], the outcome was Active. In addition, the level, % of control at 10 µM in the data set on BV-2 [19] worked out at 43%.

For the origin of these results see ChEMBL document CHEMBL6153034, “Synthesis of dolutegravir derivatives modified by 1,2,3-triazole structure and their anti-inflammatory activity in LPS-induced BV2 cells” (Bioorg Med Chem Lett, 2025).
